{"source": "patent US4762789A", "about": "“Serodiagnostic reagent for entamoeba histolytica” (priority 1986, dated 1988)", "molecules": {"B1": {"name": "trypsin: TPCK trypsin (Worthington) used to assay non-specific cleavage of collagen (protein, UniProt P00760 24-246, looked up)", "Serine protease 1": "IVGGYTCGANTVPYQVSLNSGYHFCGGSLINSQWVVSAAHCYKSGIQVRLGEDNINVVEGNEQFISASKSIVHPSYNSNTLNNDIMLIKLKSAASLNSRVASISLPTSCASAGTQCLISGWGNTKSSGTSYPDVLKCLKAPILSDSSCKSAYPGQITSNMFCAGYLEGGKDSCQGDSGGPVVCSGKLQGIVSWGSGCAQKNKPGVYTKVCNYVSWIKQTIASN", "modifications": "TPCK-treated", "notes": "TPCK trypsin (Worthington) used to assay non-specific cleavage of collagen"}}, "key": {"neutral thiol proteinase": {"system": "neutral thiol proteinase", "assay": "Effect of DTT on enzyme activity in assays", "type": "biochemical, Entamoeba histolytica", "settings": "2 mM DTT", "protocol": "2 mM DTT was maintained throughout as it enhanced activity 2-4-fold in assays and prolonged stability of the enzyme during storage. Even so, as much as 25% of the activity was lost per day in storage at -20° C.\nAll assays were performed in 100 mM Tris/HCl, 2 mM DTT, pH 7.4 unless otherwise noted."}, "[1]": {"system": "culture supernatant proteinase activity (Entamoeba histolytica trophozoites)", "assay": "Inhibition of culture supernatant proteolytic activity, Z-Arg-Arg-AMC assay", "type": "biochemical", "protocol": "(§1) \"Log-phase\" trophozoites (72 hours after passage) were washed to remove serum, and incubated in PBS with penicillin/streptomycin for 3 hours at 37° C. Amebae maintained greater than 90% viability as judged by Trypan blue exclusion and the absence of cytosolic alcohol dehydrogenase activity (Vallee 1955) in the PBS after incubation. Amebae were centrifuged, and the resulting supernatant passed through a 0.45 micron filter. This was designated as crude culture supernatant (CS).\nThe Z-Arg-Arg-AMC assay is based on the fluorescence of the cleaved AMC group at 460 nm when excited at 380 nm (Castillo, et al, 1979). Enzyme samples (5-25 microliters) were added to a 4 micromolar solution of Z-Arg-Arg-AMC in buffer to a total volume of 2 ml. The rate of substrate hydrolysis at room temperature was determined from the rate of increase of fluorescence, monitored on a continuously recording spectrofluorometer (Aminco SPF-500; American Instrument Co., Silver Spring, MD). The scale was calibrated with a stock solution of 1.3 micromolar AMC (Sigma).\n(§2) Inhibitors were preincubated with the enzyme at the indicated concentrations (See Table 1) for 20 minutes at ambient temperature; substrate was then added and proteolytic activity assayed against Z-Arg-Arg-AMC. All inhibitors were obtained from Sigma except pepstatin A (Transformation Research, Inc., Farminham, MA) and bovine serum (Biofluids). TLCK was prepared as a stock solution in dimethyl sulfoxide (DMSO). Phenlylmethylsulfonyl fluoride (PMSF), pepstatin A, and 1,10-phenanthroline stock solutions were made up in ethanol. An equal volume of DMSO or ethanol alone was tested with enzynme and inhibition was calculated relative to the appropriate solvent control."}, "[2]": {"system": "lysate and culture supernatant proteolytic activity", "type": "biochemical, Entamoeba histolytica", "protocol": "as §1\nFor extracts, trophozoites were resuspended in PBS with penicillin/streptomycin and lysed in a nitrogen cavitation bomb (Kontes Glass Co.; Vineland, N.J.) after equilibration at 30 atm (3×10^6N/m^2) for 1 hour at 40° C. After centrifugation, the supernatant of this preparation was passed through a 0.45 micron filter and designated as soluble \"lysate\".\nas §2"}, "[3]": {"system": "Mono P-purified enzyme (neutral thiol proteinase)", "assay": "Inhibition of MonoP purified enzyme, Azocoll assay", "type": "biochemical, Entamoeba histolytica", "settings": "for Activity as % of control (without inhibitor), Mono P-purified Enzyme: Azocoll assay; for Effect of inhibitor on proteolytic activity of purified enzyme: at the concentrations tested (Table I)", "protocol": "Fractions of peak activity from the anion exchange column were pooled and dialyzed overnight against buffer (25 mM bis-Tris, 2 mM DTT, pH 7.1) and applied to a MonoP chromatofocusing column at a flow rate of 0.25 ml/min. Typically, about 3 ml at 0.5 mg/ml were injected. Protein was eluted at a flow rate of 0.5 ml/min over a pH gradient of 7-5 formed with 10% Polybuffer 74, pH 5. (Polybuffer 74 is the Trademark of Pharmacia Inc., 800 Centennial Avenue, Piscataway, NJ 08854 for an amphoteric chromatofocusing buffer.) The gradient was generated with the GP-250 gradient programmer and continuously monitored with a pH meter and flow cell. Fractions were collected and checked for activity as described above.\n(§3) Azocollytic activity was measured by incubation of 3 mg Azocoll with 10-100 microliters of enzyme (1 ml reaction volume) for 3-16 hours at 37° C. The tubes were then vortexed, microfuged, and the amount of degradation determined from the absorbance of the supernatant at 540 nm (A540). Control tubes were incubated without enzyme; bovine trypsin (5 micrograms; Sigma) was used to determine the total available substrate.\nas §2, with “All” for “Inhibitors were preincubated with the enzyme at the indicated concentrations (See Table 1) for 20 minutes at ambient temperature; substrate was then added and proteolytic activity assayed against Z-Arg-Arg-AMC. All”"}, "[4]": {"system": "culture supernatant proteinase activity (Entamoeba histolytica trophozoites)", "assay": "Inhibition of culture supernatant proteolytic activity, Azocoll assay", "type": "biochemical", "settings": "inhibitor 2 mM", "protocol": "as §1, §3\nas §2, with “All” for “Inhibitors were preincubated with the enzyme at the indicated concentrations (See Table 1) for 20 minutes at ambient temperature; substrate was then added and proteolytic activity assayed against Z-Arg-Arg-AMC. All”"}, "Plasminogen": {"system": "Plasminogen", "assay": "Plasminogen activator assay (125I-fibrin plates)", "type": "biochemical", "settings": "3 hours; 100 microliters culture supernatant or lysate; urokinase 10 ploug units; less plasminogen-free control", "protocol": "Plasminogen activator activity was determined by the method of Unkeless, et al. (1973) as modified by Aggeler, et al. (1981). Briefly, 24-well plates were coated with [^125 I]-labeled fibrinogen, and incubated with calf serum for two hours at 37° C. to convert fibrinogen to fibrin. Plasminogen (280 ng; final concentration, 6 nM) was added in 50 mM Tris/HCl (pH 7.8) with 100 microliters of culture supernatant or amebic lysate or 50 microliters of MonoP-purified enzyme, to a final volume of 0.5 ml. Controls were incubated without plasminogen added. Aliquots of supernatant (50 microliters) from quadruplicate wells were counted in a gamma counter (Auto-Gamma 500; Packard Instrument Corp.; Downer's Grove, IL). Total available fibrin was determined by trypsin digest. Urokinase (10 ploug units, Calbiochem; La Jolla, CA) was assayed for comparison. Results were expressed as the percentage of total available fibrin degraded less the percentage degraded by the corresponding plasminogen-free control."}, "type I collagen": {"system": "type I collagen", "assay": "Degradation of type I collagen, SDS-PAGE", "type": "biochemical, bovine", "settings": "3.5 hours at 37° C.", "protocol": "40 microgram aliquots of fibronectin (Bethesda Research Laboratories (BRL); Bethesda, MD), laminin (BRL), or type 1 collagen (\"Vitrogen 100\"), (Vitrogen 100 is the Trademark of Collagen Corp., Palo Alto, CA for a sterile solution of purified bovine dermal type I collagen), diluted to 1 mg/ml in buffer with 150 mM NaCl, were mixed with 40 microliters of MonoP purified enzyme or 10-20 microliters of culture supernatant. Volumes were brought to 80 microliters with 100 mM Tris, pH 7.2, and DTT was added to a final concentration of 2 mM. Samples were incubated for 3.5 hours (fibronectin and collagen) or 20 hours (laminin) at 37° C. along with matched amounts of substrate or enzyme alone as controls. Collagen was also incubated with 0.5 micrograms of TPCK trypsin (trypsin with tosyl-phenylalanine-chloromethyl-ketone to inhibit any contaminating chymotrypsin, (Worthington Biochemical Corp.; Freehold, NJ) to assay for non-specific cleavage.\nReactions were terminated with 2x sample buffer, and analyzed by SDS-PAGE (laminin with 5% and 10% gels; fibronectin with 7% gels; collagen with 10% gels) for evidence of degradation; 80 microliters was loaded into each lane."}, "[5]": {"settings": "at the concentrations tested (Table I)"}}, "note": "Like-named read-outs stand apart in the source and are kept apart here. Non-standard residues stand in square brackets, D forms with d. Residues, ends and D or L forms follow the SMILES beside them. *: point of attachment. Sta = CC(C)C[C@H](N)[C@@H](O)CC(=O)O; Isovaleryl = CC(C)CC(=O)*"}
{"molecule": "O[C@H](CS)[C@H](O)CS", "note": "(racemic) [DTT, DL-dithiothreitol]", "values": [{"measurement": "enhancement of enzyme activity in assays", "setting": "neutral thiol proteinase", "value": "2-4 -fold"}]}
{"molecule": "c1cnc2c(c1)ccc1cccnc12", "note": "[1,10-phenanthroline]", "values": [{"measurement": "Activity as % of control (without inhibitor), Culture Supernatant", "setting": "[1]; inhibitor 2 mM, 20 min", "value": "100 % of control"}, {"measurement": "Effect of inhibitor on proteolytic activity of lysate and culture supernatant", "setting": "[2]; [5]", "value": "not affected"}, {"measurement": "Activity as % of control (without inhibitor), Mono P-purified Enzyme", "setting": "[3]; inhibitor 2 mM", "value": "100 % of control"}]}
{"molecule": "CCN1C(=O)C=CC1=O", "note": "[N--ethylmaleimide (NEM), N-ethylmaleimide]", "values": [{"measurement": "Activity as % of control (without inhibitor), Culture Supernatant", "setting": "[1]; inhibitor 5 mM, 20 min preincubation", "value": "5 % of control"}, {"measurement": "Effect of inhibitor on proteolytic activity of lysate and culture supernatant", "setting": "[2]; [5]", "value": "completely inhibited"}, {"measurement": "Effect of inhibitor on proteolytic activity of purified enzyme", "setting": "[3]", "value": "completely inhibited"}, {"measurement": "Activity as % of control (without inhibitor), Mono P-purified Enzyme", "setting": "[3]; inhibitor 5 mM", "value": "0 % of control"}]}
{"molecule": "O=C(O)CN(CCN(CC(=O)O)CC(=O)O)CC(=O)O", "note": "[ethylenediaminetetracetic acid (EDTA), ethylenediaminetetracetic acid]", "values": [{"measurement": "Activity as % of control (without inhibitor), Culture Supernatant", "setting": "[1]; inhibitor 10 mM, 20 min", "value": "100 % of control"}, {"measurement": "Effect of inhibitor on proteolytic activity of lysate and culture supernatant", "setting": "[2]", "value": "not affected"}, {"measurement": "Activity as % of control (without inhibitor), Mono P-purified Enzyme", "setting": "[3]; inhibitor 10 mM", "value": "100 % of control"}]}
{"molecule": "O=C(O)CI", "note": "[iodoacetate]", "values": [{"measurement": "Activity as % of control (without inhibitor), Culture Supernatant", "setting": "[1]; inhibitor 3 mM, 20 min", "value": "0 % of control"}, {"measurement": "Effect of inhibitor on proteolytic activity of lysate and culture supernatant", "setting": "[2]", "value": "completely inhibited"}, {"measurement": "Effect of inhibitor on proteolytic activity of purified enzyme", "setting": "[3]", "value": "completely inhibited"}, {"measurement": "Activity as % of control (without inhibitor), Mono P-purified Enzyme", "setting": "[3]; inhibitor 3 mM", "value": "0 % of control"}]}
{"molecule": "CC(=O)N[C@@H](CC(C)C)C(=O)N[C@@H](CC(C)C)C(=O)N[C@H](C=O)CCCNC(=N)N", "note": "[leupeptin]", "values": [{"measurement": "Activity as % of control (without inhibitor), Culture Supernatant", "setting": "[1]; inhibitor 10 microM, 20 min", "value": "68 % of control"}, {"measurement": "Effect of inhibitor on proteolytic activity of purified enzyme", "setting": "[3]", "value": "completely inhibited"}, {"measurement": "Activity as % of control (without inhibitor), Mono P-purified Enzyme", "setting": "[3]; inhibitor 10 microM", "value": "16 % of control"}, {"measurement": "Activity as % of control (without inhibitor), Mono P-purified Enzyme", "setting": "[3]; inhibitor 50 microM", "value": "0 % of control"}]}
{"molecule": "CC(C)CC(=O)N[C@H](C(=O)N[C@H](C(=O)N[C@@H](CC(C)C)[C@@H](O)CC(=O)N[C@@H](C)C(=O)N[C@@H](CC(C)C)[C@@H](O)CC(=O)O)C(C)C)C(C)C", "note": "[pepstatin A] (Isovaleryl-VV[Sta]A[Sta]-OH)", "values": [{"measurement": "Activity as % of control (without inhibitor), Culture Supernatant", "setting": "[1]; inhibitor 100 microgram/ml, 20 min", "value": "100 % of control"}, {"measurement": "Effect of inhibitor on proteolytic activity of lysate and culture supernatant", "setting": "[2]; [5]", "value": "not affected"}, {"measurement": "Activity as % of control (without inhibitor), Mono P-purified Enzyme", "setting": "[3]; inhibitor 100 microgram/ml", "value": "100 % of control"}]}
{"molecule": "O=S(=O)(F)Cc1ccccc1", "note": "[phenylmethylsulfonyl fluoride (PMSF), phenylmethylsulfonyl fluoride]", "values": [{"measurement": "Effect of inhibitor on proteolytic activity of lysate and culture supernatant", "setting": "[2]; [5]", "value": "not affected"}, {"measurement": "Activity as % of control (without inhibitor), Mono P-purified Enzyme", "setting": "[3]; inhibitor 2 mM", "value": "100 % of control"}, {"measurement": "Activity as % of control (without inhibitor), Culture Supernatant", "setting": "[4]", "value": "100 % of control"}]}
{"molecule": "Cc1ccc(S(=O)(=O)N[C@@H](CCCCN)C(=O)CCl)cc1", "note": "[tosyl-lysyl-chloromethyl ketone (TLCK), tosyl-lysyl-chloromethyl ketone]", "values": [{"measurement": "Activity as % of control (without inhibitor), Culture Supernatant", "setting": "[1]; inhibitor 0.1 mM, 20 min", "value": "0 % of control"}, {"measurement": "Effect of inhibitor on proteolytic activity of lysate and culture supernatant", "setting": "[2]; [5]", "value": "completely inhibited"}, {"measurement": "Effect of inhibitor on proteolytic activity of purified enzyme", "setting": "[3]", "value": "completely inhibited"}, {"measurement": "Activity as % of control (without inhibitor), Mono P-purified Enzyme", "setting": "[3]; inhibitor 0.1 mM", "value": "0 % of control"}]}
{"molecule": "alpha1 -proteinase inhibitor: protein proteinase inhibitor obtained from Sigma", "values": [{"measurement": "Effect of inhibitor on proteolytic activity of purified enzyme", "setting": "[3]", "value": "completely inhibited"}]}
{"molecule": "urokinase", "values": [{"measurement": "available fibrin degraded through plasminogen activation", "setting": "Plasminogen", "value": 38, "unit": "%"}]}
{"molecule": "B1", "values": [{"measurement": "degradation of type I collagen", "setting": "type I collagen", "value": "lack of non-specific proteolysis"}]}
